Consider nine molecules from ChEMBL document CHEMBL1127583, “Discovery of a potent, peripherally selective trans-3,4-dimethyl-4-(3-hydroxyphenyl)piperidine opioid antagonist for the treatment of gastrointestinal motility disorders” (J Med Chem, 1994).

The subject of experiment [1] is Mus musculus. The experiment is described as follows: Tested for effective dose required to produce diarrhea in morphine dependent mice after subcutaneous administration. The class given is functional.
In experiment [2] the test system is Mus musculus. The experiment is described as follows: Tested for effective dose required to produce diarrhea in morphine dependent mice after peroral administration. The class given is functional.
In experiment [3] the test system is Mus musculus. The experiment is described as follows: Tested for reduction in the analgesic response to morphine after subcutaneous administration of 1.25 mg/kg in abdominal stretching assay. The class given is functional, Abdomen.
Experiment [4] concerns the target Kappa-type opioid receptor (Cavia porcellus) (UniProt P41144). The experiment is described as follows: Tested for binding affinity towards kappa receptor in presence of [3H]EKC radioligand at 100 nM.
Experiment [5] shares this target. Nature of the experiment: Tested for binding affinity towards kappa receptor in presence of [3H]EKC radioligand at 10 nM.
For experiment [6], the target named is Mu-type opioid receptor (Rattus norvegicus, UniProt P33535). Nature of the experiment: Tested for binding affinity towards mu receptor in presence of [3H]NAL radioligand.
Experiment [7] has as its target T1, Kappa-type opioid receptor (Cavia porcellus, UniProt P41144). The experiment is described as follows: Tested for binding affinity towards kappa receptor in presence of [3H]EKC radioligand.
Experiment [8] concerns the target Mu-type opioid receptor (Rattus norvegicus) (UniProt P33535). The experiment is described as follows: Tested for binding affinity towards mu receptor in presence of [3H]NAL radioligand at 10 nM.
Experiment [9] has the same target. Nature of the experiment: Tested for binding affinity towards mu receptor in presence of [3H]NAL radioligand at 100 nM.
The target of experiment [10] is T1, Kappa-type opioid receptor. The experiment is described as follows: Tested for its antagonist activity against kappa receptor using U-69,593 […] in isolated guinea pig ileum. The following applies: read-out: pA2 (converted). The class given is functional, tissue-based.
The target in experiment [11] is Mu-type opioid receptor (Cavia porcellus, UniProt P97266). The experiment is described as follows: Tested for its antagonist activity against mu receptor using DAMGO […] in isolated guinea pig ileum. The class given is functional, tissue-based. The following applies: read-out: pA2 (converted).
Experiment [12] concerns the target Delta-type opioid receptor (Mus musculus, UniProt P32300). Nature of the experiment: Tested for its antagonist activity against (DPDE)delta receptor in mouse vas deferens. The class given is functional, tissue-based. The following applies: read-out: pA2 (converted).
For experiment [13], the target named is Delta-type opioid receptor (Rattus norvegicus, UniProt P33533). The experiment is described as follows: Tested for binding affinity towards delta receptor in rat brain homogenates using [3H]D-Ala2-[…]-enkephalin as radioligand. The class given is tissue-based.
Where [14] appears, read: Mus musculus, sc, read-out: ED50.
The mark [15] stands for this setting: Mus musculus, po, read-out: ED50.

Chain of Kappa-type opioid receptor (Cavia porcellus) (P41144 whole entry): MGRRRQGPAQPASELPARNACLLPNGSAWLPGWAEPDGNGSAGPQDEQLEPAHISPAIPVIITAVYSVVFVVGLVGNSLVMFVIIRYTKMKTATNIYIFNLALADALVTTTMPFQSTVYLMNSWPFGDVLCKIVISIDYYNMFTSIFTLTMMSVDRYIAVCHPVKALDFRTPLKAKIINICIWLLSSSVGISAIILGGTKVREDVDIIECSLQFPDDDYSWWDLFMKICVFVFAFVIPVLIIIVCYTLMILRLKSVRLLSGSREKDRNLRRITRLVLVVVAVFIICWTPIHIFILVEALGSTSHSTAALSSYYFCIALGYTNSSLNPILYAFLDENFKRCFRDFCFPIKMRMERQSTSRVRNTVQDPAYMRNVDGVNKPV
T1 sequence (P41144 whole entry): as above
Chain of Mu-type opioid receptor (Rattus norvegicus, UniProt P33535) (P33535 whole entry): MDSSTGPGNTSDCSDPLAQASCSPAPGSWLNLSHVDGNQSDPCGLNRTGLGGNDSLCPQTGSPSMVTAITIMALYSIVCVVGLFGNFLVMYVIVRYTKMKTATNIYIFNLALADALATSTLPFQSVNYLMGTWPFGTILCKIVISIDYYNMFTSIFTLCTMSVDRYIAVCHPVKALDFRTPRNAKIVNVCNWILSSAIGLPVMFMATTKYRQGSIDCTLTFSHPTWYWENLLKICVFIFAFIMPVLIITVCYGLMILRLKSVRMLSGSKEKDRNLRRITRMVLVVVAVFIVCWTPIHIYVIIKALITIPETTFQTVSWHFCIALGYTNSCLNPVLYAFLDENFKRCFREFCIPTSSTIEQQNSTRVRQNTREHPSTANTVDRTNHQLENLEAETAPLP
Chain of Mu-type opioid receptor (Rattus norvegicus) (P33535 whole entry): as above
Chain of Mu-type opioid receptor (Cavia porcellus, UniProt P97266) (P97266 whole entry): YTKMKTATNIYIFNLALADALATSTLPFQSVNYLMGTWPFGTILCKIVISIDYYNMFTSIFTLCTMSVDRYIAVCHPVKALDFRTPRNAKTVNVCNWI
Chain of Delta-type opioid receptor (Mus musculus, UniProt P32300) (P32300 whole entry): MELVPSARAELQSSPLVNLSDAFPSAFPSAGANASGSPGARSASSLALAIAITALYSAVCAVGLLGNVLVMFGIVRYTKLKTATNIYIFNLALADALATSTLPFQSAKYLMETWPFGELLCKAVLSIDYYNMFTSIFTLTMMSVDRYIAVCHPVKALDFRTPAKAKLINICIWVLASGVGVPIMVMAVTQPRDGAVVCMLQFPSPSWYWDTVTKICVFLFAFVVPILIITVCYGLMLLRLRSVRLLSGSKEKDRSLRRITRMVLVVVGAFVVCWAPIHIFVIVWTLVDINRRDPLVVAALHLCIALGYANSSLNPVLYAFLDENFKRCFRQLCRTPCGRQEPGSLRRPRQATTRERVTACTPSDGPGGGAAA
Chain of Delta-type opioid receptor (Rattus norvegicus, UniProt P33533) (P33533 whole entry): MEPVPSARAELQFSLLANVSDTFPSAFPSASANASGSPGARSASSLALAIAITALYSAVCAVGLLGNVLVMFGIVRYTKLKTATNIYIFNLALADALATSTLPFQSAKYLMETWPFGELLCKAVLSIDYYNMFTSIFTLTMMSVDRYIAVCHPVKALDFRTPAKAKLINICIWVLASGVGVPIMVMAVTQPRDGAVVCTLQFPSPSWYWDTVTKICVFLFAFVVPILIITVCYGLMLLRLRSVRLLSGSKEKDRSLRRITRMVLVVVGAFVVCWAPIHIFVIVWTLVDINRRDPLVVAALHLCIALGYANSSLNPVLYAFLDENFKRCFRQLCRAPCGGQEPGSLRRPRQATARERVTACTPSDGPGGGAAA

By ED50 is commonly meant the midpoint of the dose-response relation. Consider `C[C@H]1CN(CC(Cc2ccccc2)C(=O)NCC(=O)O)CC[C@@]1(C)c1cccc(O)c1` (stereo not given in full), for which the ED50 in experiment [1] (setting [14]) turned out to be 0.028 mg/kg; in experiment [2] (setting [15]), 2 mg/kg. Besides, the AD50 in experiment [3] was greater than 40 mg/kg. Moreover, the Specific Displacement in [4] was 53%; in experiment [5], 23%.

Turning to `C[C@H]1CN(CC(Cc2ccccc2)C(=O)O)CC[C@@]1(C)c1cccc(O)c1` (stereo not given in full), the ED50 in experiment [1] (setting [14]) worked out at 0.028 mg/kg. In addition, the values for the Specific Displacement in experiment [4] and in experiment [5] were 15% and 0%, respectively.

What is called Ki is a measure of affinity in units of concentration, obtained from inhibition or displacement. `CC(C)COC(=O)CNC(=O)[C@@H](Cc1ccccc1)CN1CCC(C)(c2cccc(O)c2)C(C)C1` (single isomer, unassigned): the ED50 in experiment [1] was determined as 0.02 mg/kg; in experiment [2] (setting [15]) it was 1.7 mg/kg. The Ki in experiment [6] is 19.2 nM. Further, the AD50 in [3] (1.25 mg/kg) is 16.8 mg/kg. Further, the Specific Displacement in experiment [4] turned out to be 55%; in experiment [5], 4%.

As to `CC(C)COC(=O)CNC(=O)[C@@H](Cc1ccccc1)CN1CC[C@@](C)(c2cccc(O)c2)[C@@H](C)C1`, the ED50 is 0.044 mg/kg in experiment [1] and 1.3 mg/kg in experiment [2]. Also, the figures for the inhibition constant (Ki) in [6] and in [7] were 5.5 nM and 23 nM, respectively. Besides, the AD50 in experiment [3] (1.25 mg/kg) turned out to be 11.6 mg/kg.

On to `CC(C)COC(=O)CNC(=O)C(Cc1ccccc1)CN1CCC(C)(c2cccc(O)c2)C(C)C1` (racemic), for which the ED50 in [1] (setting [14]) amounted to 0.15 mg/kg; in experiment [2] (setting [15]), 1.1 mg/kg. Besides, in experiment [6], the Ki came out at 4 nM. This molecule displayed an AD50 in experiment [3] greater than 40 mg/kg. Moreover, the Specific Displacement in experiment [4] was 16%; in [5] it was 7%.

As for `C=CCN1CC[C@]23c4c5ccc(O)c4O[C@H]2C(=O)CC[C@@]3(O)[C@H]1C5` [NALOXONE], the ED50 in experiment [1] (setting [14]) worked out at 0.05 mg/kg. The same molecule registered an AD50 in [3] of 0.08 mg/kg.

In the case of `CC(C)COC(=O)CNC(=O)[C@H](Cc1ccccc1)CN1CC[C@](C)(c2cccc(O)c2)[C@H](C)C1`, the figures for the 50% effective dose (ED50) in experiment [1] (setting [14]) and in experiment [2] (setting [15]) were 0.37 mg/kg and greater than 10 mg/kg, respectively. Moreover, the Specific Displacement amounted to 57% in experiment [8], 34% in experiment [4], 92% in experiment [9] and 0% in experiment [5]. Also, the AD50 in experiment [3] was greater than 40 mg/kg.

Take `CC1CN(C[C@H](Cc2ccccc2)C(=O)NCC(=O)O)CCC1(C)c1cccc(O)c1` (stereo not given in full): the ED50 in [1] (setting [14]) is 0.04 mg/kg; in experiment [2] (setting [15]), 0.84 mg/kg. For the same molecule, the Kb in experiment [10] is 15.8 nM; in experiment [11] it was 0.2 nM; in experiment [12], 2 nM. The Ki in [6] came to 0.77 nM; in experiment [7] it was 40 nM; in [13], 4.4 nM. In experiment [3], this molecule had an AD50 of 9 mg/kg.

On to `CC(C)COC(=O)CNC(=O)[C@H](Cc1ccccc1)CN1CC[C@@](C)(c2cccc(O)c2)[C@@H](C)C1`, for which the ED50 in experiment [1] (setting [14]) was 0.5 mg/kg; in experiment [2] (setting [15]), greater than 10 mg/kg. Moreover, the Specific Displacement in experiment [8] stood at 11%; in [4], 0%; in experiment [9] it was 70%; in experiment [5] it was 0%. In [3], this molecule displayed an AD50 of 29.6 mg/kg.
